Assay results published in US5352665A, “Method of treating disease caused by the infection of virus” (Mitsui Toatsu Chemicals, Incorporated, priority 1987, dated 1994).
Square brackets hold non-standard residues; d marks the D form. Peptide text beside a SMILES is read from it. pGlu = O=C1CC[C@@H](C(=O)O)N1

Legend:
[1] = test system: REO virus type II; assay: Jerne plaque assay (anti-SRBC hemolysis plaques) in new-born NC mice infected with REO virus; type: in vivo, mouse; conditions: for PFC/10^6 spleen cells (number of hemolysis plaques): measured 4 days later; for therapeutic effect on immune inhibition (in words): administered together with SRBC to infected NC mice, LPS 5 μg/mouse, MDP 20 μg/mouse
Description: Two weeks after the infection of 10^5 PFU REO virus, sheep red blood cells (referred to hereinafter simply as SRBC) was intraperitoneally administered and 4 days after the administration, the number of hemolysis plaques was measured by way of Jerne plaque assay as a production amount of antibody-forming cells against SRBC. The number of hemolysis plaques was 15±2 per 10^6 spleen cells in a group not infected with REO virus, while that was 2.8±1.6 in an infected group, thus showing a remarkable immunity inhibitory state. In compliance with this, atrophy of thymus and decrease in the number of thymic cortex lymphocytes were observed.
On the other hand, the effective ingredient of this invention dissolved in physiological saline was administered in an amount of 10 μg/mouse simultaneously with SRBC to mice, and 4 days after the administration, the number of hemolysis plaques was measured whereupon the number was 22±5. […] In a group to which muramyl dipeptide was administered in an amount of 20 μg/mouse together with Freund incomplete adjuvant, the number of hemolysis plaques was 11±2.
Next, recovery of the immune function by immunity-enhancing substance was examined, using new-born mice infected with REO virus type II. Two weeks after the infection of the mice with the virus, sheep red blood cells were administered to the mice, and 4 days after the administration, Jerne plaque assay was carried out to measure the number of hemolysis plaques. The number was 15±2 in a group of the mice not infected and was 2.8±1.6 in a group of the infected mice. […] This recovery of the function of immune inhibition is tabulated as follows:
Mice infected with virus was immunized at the same time with SRBC and an immunostimulant, and 4 days after the immunization, the number of hemolysis plaques was measured by Jerne plaque assay.
After mice being infected with REO virus, 10 μg 1 μg or 0.1 μg of FTS was administered to the mice. After 18 days, inhibition of immunity and recovery of its function were observed by way of Jerne plaque assay.
Virus: REO virus type II, innoculation 1×10^5 PFU/mouse

[2] = Toxicity test, repeated subcutaneous administration to mice; type: in vivo, mouse
Description: (§1) Thus, the medicament of the present invention is a safe medicament of extremely low toxicity and can be administered for a long period of time.

[3] = Toxicity test, repeated subcutaneous administration to rats; type: in vivo, rat; conditions: 30 mg/kg subcutaneously for consecutive 21 days
Description: as §1

Compound	PFC/10^6 spleen cells (number of hemolysis plaques) ([1]; MDP 20 μg/mouse with Freund incomplete adjuvant and SRBC 2 weeks after 10^5 PFU REO virus)	PFC/10^6 spleen cells (number of hemolysis plaques) ([1]; MDP 20 μg/mouse with Freund incomplete adjuvant and SRBC 2 weeks after 10^5 PFU REO virus, listed as muramyl dipeptide)	therapeutic effect on immune inhibition (in words) [1]	toxicity ([2]; 50 mg/kg and 100 mg/kg subcutaneously for consecutive 14 days, ddy male mice of 5 weeks old)	abnormal symptom by external check ([2]; 100 mg/kg subcutaneously every day for consecutive 14 days, mice)	abnormal symptom in external behavior observation, biochemical diagnosis of sera and pathological anatomy ([3]; rats)	toxicity ([3]; wister rats of 5 weeks old)	PFC/10^6 spleen cells (number of hemolysis plaques) ([1]; LPS 5 μg/mouse with SRBC 2 weeks after 10^5 PFU REO virus)	PFC/10^6 spleen cells (number of hemolysis plaques) ([1]; LPS 5 μg/mouse with SRBC 2 weeks after 10^5 PFU REO virus, listed as lipopolysaccharide (LPS))
CC(=O)N[C@H]1C(O)O[C@H](CO)[C@@H](O)[C@@H]1O[C@H](C)C(=O)N[C@@H](C)C(=O)N[C@H](CCC(=O)O)C(N)=O (mixture of isomers) [MDP, muramyl dipeptide]	11 ± 2 PFC/10^6 spleen cells	11±2 PFC/10^6 spleen cells	showing a therapeutic effect	–	–	–	–	–	–
C[C@H](NC(=O)[C@@H]1CCC(=O)N1)C(=O)N[C@@H](CCCCN)C(=O)N[C@@H](CO)C(=O)N[C@@H](CCC(N)=O)C(=O)NCC(=O)NCC(=O)N[C@@H](CO)C(=O)N[C@@H](CC(N)=O)C(=O)O [FTS, pGlu-Ala-Lys-Ser-Gln-Gly-Gly-Ser-Asn] ([pGlu]AKSQGGSN-OH)	–	–	–	No toxicity was observed	no abnormal symptom was found	no abnormal symptom was found	No toxicity was observed	–	–
lipopolysaccharide [LPS]	–	–	no therapeutic effect	–	–	–	–	0.3 ± 0.4 PFC/10^6 spleen cells	0.3±0.4 PFC/10^6 spleen cells
